Like-named read-outs stand apart in the source and are kept apart here.
How the values were obtained:
[1] = tested on: HTLV-III (strain RF) grown in C8166 cells; test: Activity against HIV (p24 antigen capture assay in infected C8166 cells); type: cell-based; settings: Human immunodeficiency virus 1, concentration that produces 50% protection, 72 hours, viral protein 24 antigen capture, read-out: I50 Activity against HIV
Method: This assay uses HTLV-III (strain RF) grown in C8166 cells (a human CD4^+ T lymphoblastoid line) using RPM1 1640 medium with bicarbonate buffer, antibiotics and 10% fetal bovine serum.
A suspension of cells is infected with ten times the TCD50 of virus and adsorption allowed to proceed for 90 minutes at 37° C. The cells are washed three times with medium. The test is carried out in 6 ml tissue culture tubes, each tube containing 2×10^5 infected cells in 1.5 ml of medium. Test compounds are dissolved in either aqueous medium or dimethyl sulphoxide, according to solubility, and a 15 μl solution of the substance added. The cultures are incubated at 37° C. for 72 hours in a humidified atmosphere containing 5% carbon dioxide in air. The cultures are then centrifuged and an aliquot of the supernatant solubilized with Nonidet P40 and subjected to an antigen capture assay which uses a primary antiserum with particular reactivity against the viral protein 24 and a horseradish peroxidase detection system. Color generation is measured spectrophotometrically and plotted against the concentration of test substance. The concentration that produces 50% protection is determined. (I50).

[2] = target: HIV protease (Human immunodeficiency virus type 1 group M subtype B, UniProt P04585); test: In vitro inhibition of HIV protease (spectrophotometric assay of N-terminal proline from peptide substrate cleavage); type: biochemical; settings: citrate buffer pH 5.5, 37° C.
Method: HIV protease was expressed in E. coli and partially purified from soluble extracts of the bacterium by ammonium sulphate fractionation (0-30%). […] Cleavage of the substrate was quantified by measuring the production of H-Pro-Ile isobutylamide by the spectrophotometric assay of N-terminal proline.
1.25 mM of substrate were dissolved in 125 mM of citrate buffer (pH 5.5) containing 0.125 mg/ml of Tween 20. […] The solution was heated in a water bath and then the pigmented residues were re-dissolved in 1 ml of 1% pyrogallol in 33% water in acetone (wt./vol./vol.). The optical density of the solution was measured spectrophotometrically at 599 nm.

SMILES | IC50 [1] [µM] | IC50 ([2]; substrate S^1: succinyl-Ser-Leu-Asn-Tyr-Pro-Ile isobutylamide, read-out: I50 Inhibition of HIV protease, S^1) [µM] | IC50 ([2]; substrate S^2: succinyl-Val-Ser-Gln-Asn-Phe-Pro-Ile isobutylamide, read-out: I50 Inhibition of HIV protease, S^2) [µM]
CC(C)(C)NC(=O)[C@@H]1C[C@@H]2CCCC[C@@H]2CN1C[C@@H](O)[C@H](Cc1ccccc1)NC(=O)[C@H](CC(N)=O)NC(=O)c1ccc2ccccc2n1 [2-Quinolylcarbonyl, N-tert.butyl-decahydro-2-[2(R)-hydroxy-4-phenyl-3(S)-[[N-(2-quinolylcarbonyl)-L-asparaginyl]amino]butyl]-(4aS,8aS)-isoquinoline-3(S)-carboxamide] | 0.002 |  | 
CC(C)(C)NC(=O)[C@@H]1C[C@@H]2CCCC[C@@H]2CN1C[C@@H](O)[C@H](Cc1ccccc1)NC(=O)[C@H](CC(N)=O)NC(=O)OCc1ccccc1 [Benzyloxycarbonyl, 2-[3(S)-[[N-(benzyloxycarbonyl)-L-asparaginyl]amino]-2(R)-hydroxy-4-phenylbutyl]-N-tert.butyl-decahydro-(4aS,8aS)-isoquinoline-3(S)-carboxamide] | 0.02 | < 0.024 | < 0.0027
